In ChEMBL document CHEMBL1201862, “PubChem BioAssay data set” (2004):
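A five-concentration, 48-hour dose response in 96-well plates underlies each endpoint, interpolated linearly between surrounding concentrations. At the GI50, growth is halved.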 Active and inactive are the calls of the source. No stated cut-off is given here; in the data, active = GI50 up to about 1.1 µM and inactive = higher.

What was measured:
Assay in all cases: NCI anticancer screen, dose series, 48 h
SNB-19 = system: SNB-19
SK-MEL-28 = system: SK-MEL-28
M14 = system: M14
UACC-62 = system: UACC-62
NCI-H23 = system: NCI-H23
OVCAR-8 = system: OVCAR-8
SW-620 = system: SW-620
UACC-257 = system: UACC-257
RXF 393 = system: RXF 393
SK-OV-3 = system: SK-OV-3
U-251 = system: U-251
Malme-3M = system: Malme-3M
SF-268 = system: SF-268
ACHN = system: ACHN
A549 = system: A549
LOX IMVI = system: LOX IMVI
MOLT-4 = system: MOLT-4
K562 = system: K562

Measured: GI50

CC(C)(CN1CCCCC1)C(=O)/C=C/c1ccc(Cl)c(Cl)c1
inactive: SNB-19 3.15 µM | SK-MEL-28 1.86 µM | M14 1.7 µM | UACC-62 1.76 µM | NCI-H23 1.71 µM | OVCAR-8 > 100 µM | SW-620 1.37 µM | UACC-257 1.18 µM | RXF 393 1.17 µM | SK-OV-3 2.34 µM | U-251 1.37 µM | Malme-3M 1.83 µM | SF-268 1.8 µM | ACHN 1.55 µM | A549 1.98 µM | LOX IMVI 1.37 µM | MOLT-4 1.63 µM | K562 1.59 µM

Cc1cccc(C(C)C)c1N1C(=O)C(=O)C(c2nc3ccccc3o2)C(=O)C1=O
inactive: SNB-19 > 100 µM | SK-MEL-28 > 100 µM | M14 > 100 µM | UACC-62 61 µM | NCI-H23 80.2 µM | OVCAR-8 > 100 µM | SW-620 56.8 µM | UACC-257 51.9 µM | RXF 393 21.4 µM | SK-OV-3 > 100 µM | U-251 89.3 µM | Malme-3M > 100 µM | SF-268 > 100 µM | ACHN > 100 µM | A549 > 100 µM | LOX IMVI 41.7 µM | MOLT-4 24.7 µM | K562 49 µM

CSc1nc2c(nc(C)c(=O)n2C2OCC(OC(C)=O)C(OC(C)=O)C2OC(C)=O)c(=O)[nH]1 (configuration not stated)
inactive: SNB-19 > 100 µM | SK-MEL-28 > 100 µM | M14 > 100 µM | UACC-62 > 100 µM | NCI-H23 > 100 µM | OVCAR-8 > 100 µM | SW-620 > 100 µM | UACC-257 > 100 µM | RXF 393 > 100 µM | SK-OV-3 > 100 µM | U-251 > 100 µM | Malme-3M > 100 µM | SF-268 > 100 µM | ACHN > 100 µM | A549 > 100 µM | LOX IMVI > 100 µM | MOLT-4 > 100 µM | K562 > 100 µM

O=C(Cc1ccccc1)NN1C(=O)C(Cl)C1c1ccc([N+](=O)[O-])cc1 (configuration not stated)
inactive: SNB-19 > 100 µM | SK-MEL-28 > 100 µM | M14 > 100 µM | UACC-62 > 100 µM | NCI-H23 53.5 µM | OVCAR-8 > 100 µM | SW-620 > 100 µM | UACC-257 76.4 µM | RXF 393 84.9 µM | SK-OV-3 > 100 µM | U-251 > 100 µM | Malme-3M > 100 µM | SF-268 > 100 µM | ACHN > 100 µM | A549 > 100 µM | LOX IMVI 87.5 µM | MOLT-4 53.2 µM | K562 65.6 µM

Nc1nnc(N)n1N
inactive: SNB-19 > 100 µM | SK-MEL-28 > 100 µM | M14 > 100 µM | UACC-62 > 100 µM | NCI-H23 > 100 µM | SW-620 > 100 µM | UACC-257 > 100 µM | RXF 393 > 100 µM | SK-OV-3 > 100 µM | U-251 > 100 µM | Malme-3M > 100 µM | SF-268 > 100 µM | ACHN > 100 µM | A549 > 100 µM | LOX IMVI > 100 µM | MOLT-4 > 100 µM | K562 > 100 µM

COC(=O)C(Cc1nc2ccc(Cl)cc2nc1O)/C(=N/NC(N)=O)C(=O)Nc1ccc(Cl)cc1 (configuration not stated)
inactive: SNB-19 > 100 µM | SK-MEL-28 > 100 µM | M14 > 100 µM | UACC-62 > 100 µM | NCI-H23 > 100 µM | OVCAR-8 > 100 µM | SW-620 > 100 µM | UACC-257 > 100 µM | RXF 393 > 100 µM | SK-OV-3 > 100 µM | U-251 > 100 µM | Malme-3M > 100 µM | SF-268 > 100 µM | ACHN > 100 µM | A549 > 100 µM | LOX IMVI > 100 µM | MOLT-4 > 100 µM | K562 > 100 µM
